Laboratory results as given in PubChem BioAssay (NCI).
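Compound exposure: 48 hours, 5 concentrations, 96-well plates. GI50 is the concentration that inhibits growth by half. At the TGI there is no net growth.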

Columns and labels:
Test in all cases: NCI anticancer screen, dose series, 48 h
HCT-116 colon = test system: HCT-116 colon
TK-10 renal = test system: TK-10 renal
MCF7 breast = test system: MCF7 breast
SNB-75 CNS = test system: SNB-75 CNS
COLO 205 colon = test system: COLO 205 colon
UO-31 renal = test system: UO-31 renal
NCI-H23 lung = test system: NCI-H23 lung
RXF 393 renal = test system: RXF 393 renal
CAKI-1 renal = test system: CAKI-1 renal
UACC-257 melanoma = test system: UACC-257 melanoma

Structure (SMILES) | GI50 (HCT-116 colon) [µM] | TGI (HCT-116 colon) [µM] | GI50 (TK-10 renal) [µM] | TGI (TK-10 renal) [µM] | GI50 (MCF7 breast) [µM] | TGI (MCF7 breast) [µM] | GI50 (SNB-75 CNS) [µM] | TGI (SNB-75 CNS) [µM] | GI50 (COLO 205 colon) [µM] | TGI (COLO 205 colon) [µM] | GI50 (UO-31 renal) [µM] | TGI (UO-31 renal) [µM] | GI50 (NCI-H23 lung) [µM] | TGI (NCI-H23 lung) [µM] | GI50 (RXF 393 renal) [µM] | TGI (RXF 393 renal) [µM] | GI50 (CAKI-1 renal) [µM] | TGI (CAKI-1 renal) [µM] | GI50 (UACC-257 melanoma) [µM] | TGI (UACC-257 melanoma) [µM]
Fc1ccc(Nc2nc(Nc3ccc(-c4nc5ccccc5[nH]4)cc3)nc(N3CCCC3)n2)cc1 | 1.78 | 3.52 | 17.1 | 31.3 | 1.9 | 5.22 | 1.7 | 3.89 | 1.81 | 3.73 | 3.13 | 14.4 | 3.36 | 16.8 | 2.17 | 4.57 | 3.01 | 12.5 |  | 
Cn1c2ccccc2c2c3c(c4c5ccccc5n(CCCCCC#N)c4c21)C(=O)N(O)C3=O | 0.87 | 4.14 | 3.94 | 40 | 0.299 | 27.9 | 0.43 | 6.2 | 2.5 | 9.09 | 0.374 | 1.97 | 1.18 | 9.91 | 1.83 | 7.75 | 1.37 | 3.03 | 1.65 | 5.22
Cc1ccc(Cl)cc1Nc1nc(C(F)(F)F)ccc1C(=O)Oc1ccc(Cl)cc1 | 4.45 | 20 | 5.57 | 18.6 | 16.8 | > 100 | 6.57 | 23.3 | 9.81 | > 100 | 16 | 41.8 | 11.7 | 27.8 | 3.97 | 16 | 3.31 | 13.2 | 39.3 | > 100
COC(=O)c1oc2c(C(=O)/C=C/c3ccc(OC)cc3)c(OCCCN3CCCCC3)ccc2c1C | 1.24 | 3.02 | 2.04 | 5.71 | 1.15 | 2.5 | 1.89 | 6.37 | 1.51 | 3.13 | 1.6 | 4.55 | 1.3 | 3.47 | 0.066 | 0.487 | 2.09 | 4.96 | 1.32 | 2.88
COC(=O)c1c(-c2ccccc2)csc1NC(=O)c1c(-c2ccccc2)noc1C | 0.379 | > 100 | > 100 | > 100 | 0.6 | > 100 | 3.59 | > 100 | 1.21 | > 100 | 8.88 | > 100 | > 29.7 | > 100 | 0.762 | 3.97 | 0.745 | > 100 | > 82.9 | > 100
CCOC1NC(=O)Oc2ccccc21 (stereo not given) |  | > 100 |  | > 100 |  | > 100 |  | > 100 |  | > 100 |  | > 100 |  | > 100 |  | > 100 |  | > 100 |  | > 100
CCN1C(=O)N(c2c(F)c(OC)cc(OC)c2F)Cc2cnc3[nH]c(CN4CCOCC4)cc3c21 | 1.84 | 19.4 |  |  | 8.04 | > 100 | 1.13 | 26.5 | 3.15 | > 100 | 0.878 | > 100 | 7.03 | > 100 | 0.394 | 8.08 | 0.528 | > 100 | 4.69 | > 100
Cc1ccc(/C=C(\C#N)n2nnc3cc(F)c(F)cc32)cc1 | 1.69 | 7.79 | 2.52 | 11.3 | 2.45 | > 100 | 2.45 | 84.5 | 1.82 | 3.76 | 2.8 | 14.2 | 5.21 | 28 | 3.28 | 13.5 | 1.77 | 19.1 | 1.63 | 3.54
COc1ccccc1Nc1nc(-c2cc3cccc(C(F)(F)F)c3oc2=O)cs1 | 0.0805 | 11.1 | 13.5 | 81.2 | 0.0574 | > 100 | 0.0305 | 16.7 | 0.172 | 0.522 | 0.527 | > 57.1 | 0.345 | > 45.9 | 0.0657 | 30.7 | 0.142 | > 100 | 1.71 | > 100
CN(C)/[N+]([O-])=N/Oc1cc(Nc2ccc(C(=O)O)cc2)c([N+](=O)[O-])cc1[N+](=O)[O-] | 20.9 | 41.6 | 18.9 | 72.7 | 25.2 | 69.7 | 25.7 | 52.1 | 28.2 | 63.5 | 25.6 | 67.3 | 20.3 | 40.9 | 22.8 | 47.8 | 22.1 | 51.7 | 19.4 | 35.5
C=C1C(=O)O[C@H]2[C@H]1CC/C(Cn1cc(CCC)nn1)=C\CC[C@@]1(C)O[C@@H]21 | 3.98 | 14.4 | 3.86 | 14.6 | 3.35 | 15.4 | 18.5 | 69.4 | 5.22 | 17.1 | 11.1 | 24.6 | 13.6 | 32 | 4.8 | 16.5 | 3.91 | 16.2 |  | 
Cc1ccc(/C=C2\CCOC2=O)cc1 | > 100 | > 100 | > 100 | > 100 | > 100 | > 100 | > 100 | > 100 | > 100 | > 100 | 41.8 | > 100 | > 100 | > 100 | > 100 | > 100 |  |  | > 100 | > 100
N#Cc1c2ccccc2c2nnc3cc(Cl)c(Cl)cc3n12 | 34.2 | > 100 | > 100 | > 100 | 27.5 | 90.3 | 71.7 | > 100 |  |  | 23.3 | 65.8 | 75.1 | > 100 | 30 | > 100 | 77.4 | > 100 | 34.5 | > 100
